Test results reported in US12686711B2, “DARIC interleukin receptors” (Regeneron Pharmaceuticals, Inc., priority 2017, dated 2026).

What was measured:
[1] = target or test not stated; chemically modified non-immunosuppressive rapamycin analogue; cited from earlier work
donor PBMCs = assay: IFNγ production in IL-12 pre-treated transduced and untransduced donor PBMCs; format: cell-based; conditions: untransduced controls and IL-18R-DARIC-GFP transduced cells; pre-treated 50 ng/mL human recombinant IL-12 for 24 hours, then medium with 100 ng/mL human recombinant IL-18; FIG. 2
From the text: IL-18 receptor (IL-18R) DARIC binding and signaling components were designed, constructed, and verified. An IL-18R DARIC lentiviral vector was constructed comprising an MNDU3 promoter operably linked to a polynucleotide encoding: a DARIC signaling component (CD8α-signal peptide, an FRB variant (T82L), and an IL-18R1 transmembrane and signaling domain); a P2A sequence; and a DARIC binding component (an Igκ-signal peptide, an FKBP12 domain, and a IL-18RAP transmembrane and signaling domain). An IL-18R DARIC-GFP lentiviral vector was constructed by appending another polynucleotide encoding a P2A sequence and GFP to the to the polynucleotide encoding the IL-18R1 signaling domain in aforementioned vector. See, e.g., SEQ ID NOs: 1-4.
Donor PBMCs were transduced with LVV encoding IL-18R-DARIC-GFP. Transduced PBMCs and untransduced control PBMCs were pre-treated with 50 ng/mL human recombinant IL-12 for 24 hours. The treated cells were washed and cultured in medium only, medium with 100 ng/mL human recombinant IL-18 or medium with 1 nM rapamycin. […] FIG. 2.

Molecule: CO[C@H]1[C@@H](O)[C@H](C)C[C@H](C)/C=C/C=C/C=C(\C)[C@@H](c2c[nH]c3c(C)cccc23)C[C@@H]2CC[C@@H](C)[C@@](O)(O2)C(=O)C(=O)N2CCCC[C@H]2C(=O)O[C@H]([C@H](C)C[C@@H]2CC[C@@H](O)[C@H](OC)C2)C[C@H](O)[C@H](C)/C=C(\C)[C@H]1O [AP21967, C-16-(S)-7-methylindolerapamycin]
- IC50 [1]: 0.01 µM

Molecule: IL-18: human recombinant IL-18 cytokine used as positive control
- IFNγ production when cultured in IL-18 (donor PBMCs): increased IFNγ production in both untransduced controls and cells transduced with IL-18R-DARIC-GFP
